Assay results from US6127131A (Synaptic Pharmaceutical Corporation, priority 1998, dated 2000).

How the values were obtained:
[1] = biological target: T1, glycine transporter encoded by rB20a (Rattus norvegicus, UniProt P28572); assay: Competition for [3H]glycine uptake by COS-7 cells transfected with rB20a; assay type: cell-based; settings: agents at 1 mM (Table 1)
T1 construct: expressed in transfected cells; host or cells: COS-7 cells, transient transfection with pSVL-rB20a
T1 sequence (P28572 1-638): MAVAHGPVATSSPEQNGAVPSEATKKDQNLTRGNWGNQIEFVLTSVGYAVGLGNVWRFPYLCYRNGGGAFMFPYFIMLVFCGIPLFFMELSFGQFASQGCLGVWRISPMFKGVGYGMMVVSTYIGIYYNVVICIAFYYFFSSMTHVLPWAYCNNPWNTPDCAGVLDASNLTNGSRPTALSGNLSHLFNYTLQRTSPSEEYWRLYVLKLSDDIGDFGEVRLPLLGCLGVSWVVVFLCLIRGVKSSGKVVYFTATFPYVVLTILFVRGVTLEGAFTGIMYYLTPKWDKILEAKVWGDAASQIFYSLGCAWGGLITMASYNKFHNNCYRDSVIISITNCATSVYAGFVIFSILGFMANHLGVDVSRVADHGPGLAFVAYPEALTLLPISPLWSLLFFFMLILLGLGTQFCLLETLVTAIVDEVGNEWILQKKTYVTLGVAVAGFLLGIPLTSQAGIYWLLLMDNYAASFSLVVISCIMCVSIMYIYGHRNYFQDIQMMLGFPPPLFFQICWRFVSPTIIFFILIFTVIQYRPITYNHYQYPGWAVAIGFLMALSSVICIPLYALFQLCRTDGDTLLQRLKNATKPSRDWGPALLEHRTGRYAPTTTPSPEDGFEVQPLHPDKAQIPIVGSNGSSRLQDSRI
Method: These two clones were constructed into a full-length clone (designated rB20a) by ligation at their internal Nco I sites and then cloned into the eukaryotic expression vector pSVL (Pharmacia LKB Biotechnology, Piscataway, N.J.). Transient transfection of COS cells was carried out using DEAE-dextran with DMSO according to the method of Lopata et al. (1984) with minor modifications. COS cells were grown in six-well plates (37° C.,5%CO2) in high glucose Dulbecco's modified Eagle medium supplemented with 10% bovine calf serum, 100 U/ml penicillin G, and 100 μg/ml streptomycin sulfate. Cells were routinely used two days after transfection for transport studies.
(§1) Plates were incubated at 37° C. for 10 or 20 minutes, then washed rapidly 3× with HBS. Cells were solubilized with 0.05% sodium deoxycholate/0.1N NaOH (1 ml/well), 0.5 ml aliquots were removed, neutralized with 1N HCl, and radioactivity was determined by scintillation counting. Protein was quantified in an aliquot of the solubilized cells with the Bradford Reagent (Biorad, Richmond, Calif.), according to the manufacturer's directions.
Nonspecific uptake was determined with 1 mM

[2] = biological target: T2, transporter encoded by rB20a (Rattus norvegicus, UniProt P28572); assay: Screen of COS cells transfected with rB20a for transport of radiolabeled neurotransmitters and amino acids; assay type: cell-based; settings: data not shown
T2 sequence (P28572 1-638): T1 sequence (P28572 1-638)
Method: as §1

Compound | competition for [3H]glycine uptake (in words) [1] | effect of rB20a expression on uptake of the radiolabeled substrate [2]
N[C@@H](CO)C(=O)O [L-serine] | Neither α-(methylamino) isobutyric acid (1 mM), a substrate for system A, nor L-serine (1 mM), a substrate for system ASC, significantly competed | 
[^3 H]glutamate |  | did not significantly alter
CNC(C)(C)C(=O)O [α-(methylamino) Isobutyric acid] | Neither α-(methylamino) isobutyric acid (1 mM), a substrate for system A, nor L-serine (1 mM), a substrate for system ASC, significantly competed | 
